# How the values were obtained:
# [1] = test system: Two-spotted Spider Mite (Tetranychus urticae); experiment: Insecticidal test for two-spotted spider mite, ovicide method; format: in vivo; parameters: key: A: 90–100; B: 80–89; C: 70–79; D: 60–69; E: 50–59; F: less than 50; G: Inactive; conditions: cotton leaf discs, 6 days
# Method in brief: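 Cotton leaf discs (eight, 2.2 cm each) received ten adult female two-spotted spider mites, which laid eggs for 24 hours before being taken off. The discs were then set on an agar substrate and kept at 24° C. and 90% RH for 6 days to assess ovicidal control.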
# [2] = test system: Beet Armyworm (Spodoptera exigua); experiment: Insecticidal test for beet armyworm, treated lepidopteran diet; format: in vivo; parameters: key: A: 90–100; B: 80–89; C: 70–79; D: 60–69; E: 50–59; F: less than 50; G: Inactive; conditions: on diet surface, second-instar larvae, 5 days
# Method in brief: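 Test compound formulated at 400 ppm in 2:1 acetone:tap water; 250 μL applied onto surface of modified Shorey lepidopteran diet, five cups per compound (one cup = one replicate). After solvent air-dried, one second-instar larva placed on treated diet per cup.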
# [3] = test system: Cotton Aphid (Aphis gossypii); experiment: Insecticidal test for cotton aphid, spray on infested squash cotyledons; format: in vivo; conditions: 50 ppm spray, 3 days
# Method in brief: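 Squash cotyledons were infested with all aphid life stages 16–20 h beforehand, then sprayed on both sides to runoff with 50 ppm compound (acetone:ethanol, 0.05% Tween 20). After 3 days at 26 °C and 40% RH, aphids were counted under a microscope, and percent control is population reduction versus untreated.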
# [4] = test system: Cabbage Looper (Trichoplusia ni); experiment: Insecticidal test for cabbage looper, treated cabbage leaf disc; format: in vivo; conditions: cabbage leaf-dip, 2nd instar larvae, 5 days
# [5] = test system: Sweetpotato Whitefly (Bemisia tabacia); experiment: Insecticidal test for sweetpotato whitefly, spray on cotton plants; format: in vivo; parameters: key: A: 90–100; B: 80–89; C: 70–79; D: 60–69; E: 50–59; F: less than 50; G: Inactive; conditions: 200 ppm spray, 13 days, large nymphs
# Method in brief: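 Five-week cotton plants trimmed to two leaves carried 2 days of whitefly oviposition, then adults were removed. Leaves were sprayed top and bottom with 200 ppm compound in water with 0.05% Tween 20 (acetone:ethanol co-solvent), four replicates. After 13 days at 28° C/60% RH, 3rd–4th instar nymphs were counted; percent control versus solvent-only sprayed plants.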
# [6] = test system: Tobacco Budworm (Heliothis virescens); experiment: Insecticidal test for tobacco budworm, treated cotton cotyledon leaf disc; format: in vivo; parameters: key: A: 90–100; B: 80–89; C: 70–79; D: 60–69; E: 50–59; F: less than 50; G: Inactive; conditions: cotton cotyledon leaf-dip, 2nd instar larvae, 5 days
smiles,measurement,setting,value
"Cc1c(-c2nc(-c3c(F)cccc3Cl)nn2C)csc1-c1ccc(OC(F)(F)C(F)C(F)(F)F)cc1 (centres unmarked) [Example 7, 3-(2-Chloro-6-fluorophenyl)-5-{5-[4-(1,1,2,3,3,3-hexafluoropropoxy)phenyl]-4-methylthien-3-yl}-1-methyl-1H-1,2,4-triazole]",melting point,,114 to 116 °C
"Cn1nc(-c2c(F)cccc2Cl)nc1-c1cc(-c2ccc(OC(F)(F)F)cc2)sc1Br [Example 3, 3-(2-Chloro-6-fluorophenyl)-5-[2-bromo-5-(4-trifluoromethoxyphenyl)thien-3-yl]-1-methyl-1H-1,2,4-triazole]",melting point,,135 to 136 °C
"Cc1sc(-c2ccc(OC(F)(F)F)cc2)cc1-c1nc(-c2c(F)cccc2Cl)nn1C [Example 4, 3-(2-Chloro-6-fluorophenyl)-5-[2-methyl-5-(4-trifluoromethoxyphenyl)thien-3-yl]-1-methyl-1H-1,2,4-triazole]",melting point,,153 to 155 °C
Cc1cc(-c2ccc(Cl)c(F)c2)sc1-c1nc(-c2c(F)cccc2Cl)nn1C,SM: activity against two-spotted spider mite (% control rating),[1],A (90–100)
same,BAW: activity at 400 ppm against beet armyworm (% control rating),[2],A (90–100)
same,CA: activity at 50 ppm against cotton aphid (% control rating),[3],A (90–100)
same,CL: activity at 400 ppm against cabbage looper (% control rating),[4],A (90–100)
same,WF: activity at 200 ppm against whitefly (% control rating),[5],G
same,TBW: activity at 400 ppm against tobacco budworm (% control rating),[6],B (80–89)
Cn1nc(-c2c(F)cccc2Cl)nc1-c1cc(-c2ccc(Cl)cc2F)sc1Cl,SM: activity against two-spotted spider mite (% control rating),[1],A (90–100)
same,BAW: activity at 400 ppm against beet armyworm (% control rating),[2],A (90–100)
same,CA: activity at 50 ppm against cotton aphid (% control rating),[3],F (less than 50)
same,CL: activity at 400 ppm against cabbage looper (% control rating),[4],A (90–100)
same,WF: activity at 200 ppm against whitefly (% control rating),[5],F (less than 50)
same,TBW: activity at 400 ppm against tobacco budworm (% control rating),[6],F (less than 50)
"Cc1c(-c2nc(-c3c(F)cccc3Cl)nn2C)csc1-c1ccc(OC(F)(F)F)cc1 [Example 1, 3-(2-Chloro-6-fluorophenyl)-5-[4-methyl-5-(4-trifluoromethoxyphenyl)thien-3-yl]-1-methyl-1H-1,2,4-triazole]",melting point,,124 to 125 °C
Cc1c(-c2nc(-c3c(F)cccc3Cl)nn2C)csc1-c1ccc(OCC(F)(F)F)cc1,SM: activity against two-spotted spider mite (% control rating),[1],A (90–100)
same,BAW: activity at 400 ppm against beet armyworm (% control rating),[2],A (90–100)
same,CA: activity at 50 ppm against cotton aphid (% control rating),[3],B (80–89)
same,CL: activity at 400 ppm against cabbage looper (% control rating),[4],A (90–100)
same,WF: activity at 200 ppm against whitefly (% control rating),[5],A (90–100)
same,TBW: activity at 400 ppm against tobacco budworm (% control rating),[6],A (90–100)
Cc1c(-c2nc(-c3c(F)cccc3Cl)nn2C)csc1-c1ccc(OC(F)(F)C(F)Br)cc1 (centres unmarked),SM: activity against two-spotted spider mite (% control rating),[1],A (90–100)
same,BAW: activity at 400 ppm against beet armyworm (% control rating),[2],A (90–100)
same,CA: activity at 50 ppm against cotton aphid (% control rating),[3],A (90–100)
same,CL: activity at 400 ppm against cabbage looper (% control rating),[4],A (90–100)
same,WF: activity at 200 ppm against whitefly (% control rating),[5],A (90–100)
same,TBW: activity at 400 ppm against tobacco budworm (% control rating),[6],A (90–100)
Cc1c(-c2nc(-c3c(F)cccc3Cl)nn2C)csc1-c1cc(C(F)(F)F)ccc1F,SM: activity against two-spotted spider mite (% control rating),[1],F (less than 50)
same,BAW: activity at 400 ppm against beet armyworm (% control rating),[2],G
same,CA: activity at 50 ppm against cotton aphid (% control rating),[3],B (80–89)
same,CL: activity at 400 ppm against cabbage looper (% control rating),[4],A (90–100)
same,WF: activity at 200 ppm against whitefly (% control rating),[5],F (less than 50)
same,TBW: activity at 400 ppm against tobacco budworm (% control rating),[6],G
Cc1c(-c2nc(-c3c(F)cccc3Cl)nn2C)csc1-c1ccc(OC(F)(F)C(F)F)cc1,SM: activity against two-spotted spider mite (% control rating),[1],E (50–59)
same,BAW: activity at 400 ppm against beet armyworm (% control rating),[2],A (90–100)
same,CA: activity at 50 ppm against cotton aphid (% control rating),[3],C (70–79)
same,CL: activity at 400 ppm against cabbage looper (% control rating),[4],A (90–100)
same,WF: activity at 200 ppm against whitefly (% control rating),[5],A (90–100)
same,TBW: activity at 400 ppm against tobacco budworm (% control rating),[6],A (90–100)
Cc1c(-c2nc(-c3c(F)cccc3Cl)nn2C)csc1-c1cccc(OC(F)(F)F)c1,SM: activity against two-spotted spider mite (% control rating),[1],F (less than 50)
same,BAW: activity at 400 ppm against beet armyworm (% control rating),[2],G
same,CA: activity at 50 ppm against cotton aphid (% control rating),[3],A (90–100)
same,CL: activity at 400 ppm against cabbage looper (% control rating),[4],A (90–100)
same,WF: activity at 200 ppm against whitefly (% control rating),[5],B (80–89)
same,TBW: activity at 400 ppm against tobacco budworm (% control rating),[6],G
"Cn1nc(-c2c(F)cccc2Cl)nc1-c1cc(-c2cccc(C(F)(F)F)c2)sc1Cl [Example 2, 3-(2-Chloro-6-fluorophenyl)-5-[2-chloro-5-(3-trifluoromethylphenyl)thien-3-yl]-1-methyl-1H-1,2,4-triazole]",melting point,,53 to 54 °C
Cc1c(-c2ccc(OC(F)(F)C(F)Br)cc2)csc1-c1nc(-c2c(F)cccc2Cl)nn1C (centres unmarked),SM: activity against two-spotted spider mite (% control rating),[1],G
same,BAW: activity at 400 ppm against beet armyworm (% control rating),[2],A (90–100)
same,CA: activity at 50 ppm against cotton aphid (% control rating),[3],A (90–100)
same,CL: activity at 400 ppm against cabbage looper (% control rating),[4],A (90–100)
same,WF: activity at 200 ppm against whitefly (% control rating),[5],A (90–100)
same,TBW: activity at 400 ppm against tobacco budworm (% control rating),[6],B (80–89)
Cc1cc(-c2ccc(OC(F)(F)C(Cl)Cl)cc2)sc1-c1nc(-c2c(F)cccc2Cl)nn1C,SM: activity against two-spotted spider mite (% control rating),[1],B (80–89)
same,BAW: activity at 400 ppm against beet armyworm (% control rating),[2],A (90–100)
same,CA: activity at 50 ppm against cotton aphid (% control rating),[3],A (90–100)
same,CL: activity at 400 ppm against cabbage looper (% control rating),[4],A (90–100)
same,WF: activity at 200 ppm against whitefly (% control rating),[5],E (50–59)
same,TBW: activity at 400 ppm against tobacco budworm (% control rating),[6],A (90–100)
Cc1c(-c2nc(-c3c(F)cccc3Cl)nn2C)csc1-c1cccc(C(F)(F)F)c1F,SM: activity against two-spotted spider mite (% control rating),[1],F (less than 50)
same,BAW: activity at 400 ppm against beet armyworm (% control rating),[2],G
same,CA: activity at 50 ppm against cotton aphid (% control rating),[3],A (90–100)
same,CL: activity at 400 ppm against cabbage looper (% control rating),[4],A (90–100)
same,WF: activity at 200 ppm against whitefly (% control rating),[5],E (50–59)
same,TBW: activity at 400 ppm against tobacco budworm (% control rating),[6],G
Cc1c(-c2nc(-c3c(F)cccc3Cl)nn2C)csc1-c1ccc(OC2CCCCO2)cc1 (centres unmarked),SM: activity against two-spotted spider mite (% control rating),[1],F (less than 50)
same,BAW: activity at 400 ppm against beet armyworm (% control rating),[2],A (90–100)
same,CA: activity at 50 ppm against cotton aphid (% control rating),[3],B (80–89)
same,CL: activity at 400 ppm against cabbage looper (% control rating),[4],F (less than 50)
same,WF: activity at 200 ppm against whitefly (% control rating),[5],F (less than 50)
same,TBW: activity at 400 ppm against tobacco budworm (% control rating),[6],F (less than 50)
